How the values were obtained:
[1] = tested on: diamondback moth (Plutella xylostella); assay: Insecticidal effect on diamondback moth (Test Example 1); type: in vivo; conditions: diamondback moth; judged by the mortality criterion of Test Example 1
Outline: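 Oviposition by adults on Chinese cabbage seedling; immersion; air-dry; 25° C room. Count of hatched larvae at day 6 post-immersion → mortality → effect graded by criterion. Triplicate, 10 insects/group.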

[2] = tested on: rice leafroller (Cnaphalocrocis medinalis); assay: Insecticidal effect on rice leafroller (Test Example 3); type: in vivo; conditions: 500 ppm; rice lamina immersed; third-instar larvae of rice leafroller; four days after inoculation; 25° C., humidity 70%
Experimental: Insecticidal effect on rice leafroller (Cnaphalocrocis medinalis)
After air-drying, the lamina was placed in a plastic Petri dish with a diameter of 9 cm whose bottom had been covered with a wetted filter paper. The lamina was inoculated with third-instar larvae of rice leafroller, after which the dish was allowed to stand in a room thermostated at 25° C. and having a humidity of 70%. Four days after the inoculation, the dead and alive were counted and the insecticidal effect was judged according to the criterion shown in Test Example 1. The test was carried out with triplicate groups of 10 insects.

Compound | Insecticidal effect, Test Example 1 [1] | Insecticidal effect, Test Example 3 [2]
CC(C)NC(=O)c1c(Cl)cccc1C(=O)Nc1ccc(-c2ccccc2)cc1 [compound 110] | A (100) | A (100)
COc1ccc(NC(=O)c2cccc(Cl)c2C(=O)NC(C)C)c(C)c1 [compound 123] | A (100) | A (100)
CC(C)NC(=O)c1c(Cl)cccc1C(=O)Nc1ccc(OC(F)F)c(Cl)c1 [compound 134] | A (100) | A (100)
CC(C)NC(=O)c1c(Cl)cccc1C(=O)Nc1ccc(OC(F)F)c(F)c1 [compound 137] | A (100) | A (100)
Cc1cc(SC(C)C)ccc1NC(=O)c1cccc(Cl)c1C(=O)NC(C)C [compound 153] | A (100) | D (79-50)
CC(C)NC(=O)c1cc(Cl)ccc1C(=O)Nc1cccc(C(F)(F)F)c1 [compound 171] | A (100) | D (79-50)
Cc1ccc(Cl)cc1NC(=O)c1ccc(Cl)cc1C(=O)NC(C)C [compound 178] | A (100) | A (100)
CC(C)NC(=O)c1ccc(Cl)cc1C(=O)Nc1ccc(Cl)cc1Cl [compound 187] | A (100) | D (79-50)
CC(C)NC(=O)c1ccc(Cl)cc1C(=O)Nc1ccc(F)c(F)c1 [compound 188] | D (79-50) | D (79-50)
Cc1ccc(Cl)cc1NC(=O)c1cc(Cl)ccc1C(=O)NC(C)C [compound 191] | A (100) | A (100)
CC(C)NC(=O)c1cccc(Cl)c1C(=O)Nc1ccc(C(C)(C)C)cc1 [compound 196] | A (100) | D (79-50)
CC(C)NC(=O)c1cccc(Cl)c1C(=O)Nc1ccc(OC(F)F)cc1 [compound 200] | A (100) | A (100)
CC(C)NC(=O)c1cccc(Cl)c1C(=O)Nc1cccc([S+]([O-])C(F)(F)F)c1 (centres unmarked) [compound 206] | A (100) | A (100)
CC(C)NC(=O)c1cccc(Cl)c1C(=O)Nc1ccc(Cl)cc1Cl [compound 209] | A (100) | B (99-90)
CC(C)NC(=O)c1cccc(Cl)c1C(=O)Nc1ccc(F)cc1F [compound 210] | A (100) | D (79-50)
CC(C)NC(=O)c1cccc(Cl)c1C(=O)Nc1ccc(F)cc1Cl [compound 211] | A (100) | A (100)
Cc1cc(Br)ccc1NC(=O)c1c(Cl)cccc1C(=O)NC(C)C [compound 216] | A (100) | A (100)
Cc1cc(I)ccc1NC(=O)c1c(Cl)cccc1C(=O)NC(C)C [compound 217] | A (100) | A (100)
COc1ccc(NC(=O)c2c(Cl)cccc2C(=O)NC(C)C)c(C)c1 [compound 218] | A (100) | C (89-80)
CC(C)NC(=O)c1cccc(Cl)c1C(=O)Nc1ccc(C(F)(F)F)cc1Cl [compound 220] | A (100) | A (100)
Cc1cc(C(F)(F)C(F)(F)C(F)(F)C(F)(F)C(F)(F)C(F)(F)F)ccc1NC(=O)c1c(Cl)cccc1C(=O)NC(C)C [compound 226] | A (100) | A (100)
CC(C)NC(=O)c1cccc(Cl)c1C(=O)Nc1ccc(OC(F)F)c(Cl)c1 [compound 232] | A (100) | A (100)
CC(C)NC(=O)c1cccc(Cl)c1C(=O)Nc1ccc(OC(F)(F)F)cc1Cl [compound 234] | A (100) | A (100)

Compound | Insecticidal effect, Test Example 1 [1] | Insecticidal effect, Test Example 3 [2]
CC(C)NC(=O)c1cccc(Cl)c1C(=O)Nc1ccc(OC(F)(F)F)cc1Br [compound 235] | A (100) | A (100)
Cc1cc(OC(F)(F)F)ccc1NC(=O)c1c(Cl)cccc1C(=O)NC(C)C [compound 237] | A (100) | A (100)
Cc1cc(OC(F)(F)Br)ccc1NC(=O)c1c(Cl)cccc1C(=O)NC(C)C [compound 238] | A (100) | A (100)
Cc1cc(Oc2ncc(C(F)(F)F)cc2Cl)ccc1NC(=O)c1c(Cl)cccc1C(=O)NC(C)C [compound 250] | A (100) | D (79-50)
CCOP(=O)(OCC)c1ccc(NC(=O)c2c(Cl)cccc2C(=O)NC(C)C)c(C)c1 [compound 251] | A (100) | A (100)
CC(C)NC(=O)c1cccc(Cl)c1C(=O)Nc1ccc2oc(C(F)(F)F)nc2c1 [compound 255] | A (100) | A (100)
CC(C)NC(=O)c1cccc(Cl)c1C(=O)Nc1ccc2c(c1)nc(C(F)(F)F)n2C [compound 257] | A (100) | B (99-90)
Cc1cc(OC(F)F)ccc1NC(=O)c1c(Cl)ccc(Cl)c1C(=O)NC(C)C [compound 258] | A (100) | A (100)
Cc1cc(Cl)ccc1NC(=O)c1c(Cl)ccc(Cl)c1C(=O)NC(C)C [compound 259] | A (100) | D (79-50)
Cc1cccc(NC(=O)c2cccc(Br)c2C(=O)NC(C)C)c1C [compound 263] | A (100) | A (100)
CC(C)NC(=O)c1c(Br)cccc1C(=O)Nc1ccc2c(c1)OCO2 [compound 300] | A (100) | A (100)
Cc1cccc(NC(=O)c2c(Br)cccc2C(=O)NC(C)C)c1C [compound 303] | A (100) | D (79-50)
Cc1ccc(Cl)cc1NC(=O)c1c(Br)cccc1C(=O)NC(C)C [compound 307] | A (100) | D (79-50)
Cc1cc(Br)ccc1NC(=O)c1c(Br)cccc1C(=O)NC(C)C [compound 311] | A (100) | D (79-50)
Cc1cc(F)ccc1NC(=O)c1c(Br)cccc1C(=O)NC(C)C [compound 314] | A (100) | A (100)
CC(C)NC(=O)c1cccc(Br)c1C(=O)Nc1ccc(C(F)(F)F)cc1Cl [compound 315] | A (100) | A (100)
Cc1ccc(NC(=O)c2c(Br)cccc2C(=O)NC(C)C)c(C)c1OC(F)F [compound 320] | A (100) | D (79-50)
COc1ccc(NC(=O)c2c(Br)cccc2C(=O)NC(C)C)c(C)c1 [compound 322] | A (100) | B (99-90)
CC(C)NC(=O)c1cccc(Br)c1C(=O)Nc1ccc(OC(F)(F)F)cc1Br [compound 324] | A (100) | A (100)
Cc1cc(OC(F)(F)F)ccc1NC(=O)c1c(Br)cccc1C(=O)NC(C)C [compound 326] | A (100) | A (100)
Cc1cc(OC(F)(F)Br)ccc1NC(=O)c1c(Br)cccc1C(=O)NC(C)C [compound 327] | A (100) | A (100)
Cc1cc(OC(F)(F)C(F)F)ccc1NC(=O)c1c(Br)cccc1C(=O)NC(C)C [compound 330] | A (100) | A (100)
Cc1c(NC(=O)c2c(Br)cccc2C(=O)NC(C)C)ccc(OC(F)F)c1Cl [compound 332] | A (100) | A (100)

— patent US6362369B1, “Phthalic acid diamide derivatives fluorine-containing aniline compounds as starting material, agricultural and horticultural insecticides, and a method for application of the insecticides” (Nihon Nohyaku Co., Ltd., priority 1997, dated 2002)
